No end group written: not given here.
Legend:
[1] = test system: α-chymotrypsin; test: SPR interaction with α-chymotrypsin; assay type: binding; details: for SPR binding to α-chymotrypsin (in words): peptide immobilized on CM4 chip
Description: (§1) The interaction of the peptides with serine proteinases (trypsin, α-chymotrypsin, human neutrophil elastase, pancreatic kallikrein and cathepsin G) was studied using the surface plasmon resonance (SPR) method. The peptides were immobilized on a CM4 sensor chip. […] Kinetic parameters were calculated at 25 °C. Obtained data indicated the formation of tight complexes and eliminated non-specific binding (Table 2).
(§2) The study of the interaction of serine proteinases with rHCIQ2c1 and rHCIQ4c7 was performed on SPR biosensor Biacore 3000 (GE Healthcare, USA) running under the program “Biacore 3000 Control Software v.1.0”. The evaluation of data was carried out using “Biacore Evaluation v.4.1”. Peptides were covalent immobilized on carboxymethylated surface of the Biacore CM4 sensor chip (GE Healthcare, USA) activated by EDC/NHS (N-hydroxysuccinimide/1-ethyl-3-(3-dimethylaminopropyl)carbodiimide hydrochloride) mixture by the injection of peptide solution (100 µg/ml) in 10 mM sodium acetate (pH 5.5) during 10 min with flow rate 5 µl/min. Quantities of immobilized peptides were 970 RU (resonance units, 1 RU corresponds 1 pg peptide) for rHCIQ2c1 and 460 RU for rHCIQ4c7. In all of the experiments, the flow cell 1 (Fc1) without the immobilized polypeptides was considered as the reference cell for the correction of the signal responses. HBS (HEPES buffered saline-NaCl): 0.15 M NaCl, 0.01 M HEPES, pH 7.4 (cat. no. BR-1003-69, GE Healthcare, USA) was used as the running buffer for the SPR assays. Protease solutions at concentrations from 1 nM to 5 μM were passed through measuring and control biosensor cells at 25 °C during 5 min with a flow rate 5 µl/min. Further complex breakdown was recorded during at most 10 min. After each cycle of SPR measurement, the sensing surface was regenerated by the injection of 50 mM NaOH for 0.5 min at a flow rate of 50 μl/min. Changes in Gibbs free energy (ΔG) at 25 °C were calculated by the following equation:1 ΔG=RTlnKD, where KD is the dissociation constant. Changes in enthalpy (ΔH) and entropic term (−TΔS) were calculated from the linear equation:2 ΔG=ΔH−TΔS, using the liner approximation of temperature dependence of ΔG (Van’t Hoff diagram).

[2] = test system: rKv1.6; test: Two-electrode voltage clamp, rKv1.6 in X. laevis oocytes; assay type: cell-based; details: 10 μM, 18–22 °C, n ≥ 3
Description: (§3) For the expression of the voltage-gated potassium channels (rKv1.1, rKv1.2, hKv1.3, rKv1.4, rKv1.5, rKv1.6, Shaker IR and hERG) in X. laevis oocytes, the linearized plasmids were transcribed using the T7 or SP6 mMESSAGE-mMACHINE transcription kit (Ambion, USA). The harvesting of stage V–VI oocytes from an anaesthetized female X. laevis frog was previously described. Oocytes were injected with 50 nl of cRNA at a concentration of 1 ng/nl using a micro-injector (Drummond Scientific, USA). The oocytes were incubated in a solution containing (in mM): NaCl, 96; KCl, 2; CaCl2, 1.8; MgCl2, 2; HEPES, 5 (pH 7.4), supplemented with 50 mg/l gentamycin sulfate.
(§4) Two-electrode voltage-clamp recordings were performed at room temperature (18–22 °C) using a Geneclamp 500 amplifier (Molecular Devices, USA) controlled by a pClamp data acquisition system (Axon Instruments, USA), as described in[47]. Whole cell currents from oocytes were recorded 1–4 days after injection. Bath solution composition was ND96 (in mM): NaCl, 96; KCl, 2; CaCl2, 1.8; MgCl2, 2 and HEPES, 5 (pH 7.4). Voltage and current electrodes were filled with 3 M KCl. The resistances of both electrodes were kept between 0.7 and 1.5 MΩ. […] All data were analysed using pClamp Clampfit 10.0 (Molecular Devices, Downingtown, PA, USA) and Origin 7.5 software (Originlab, Northampton, MA, USA).

[3] = test system: hERG; test: Two-electrode voltage clamp, hERG in X. laevis oocytes; assay type: cell-based; details: 10 μM, 18–22 °C, n ≥ 3
Description: as §3, §4

[4] = test system: rKv1.1; test: Two-electrode voltage clamp, rKv1.1 in X. laevis oocytes; assay type: cell-based; details: 10 μM, 18–22 °C, n ≥ 3
Description: as §3, §4

[5] = test system: cathepsin G; test: SPR interaction with cathepsin G; assay type: binding; details: for SPR binding to cathepsin G (in words): peptide immobilized on CM4 chip
Description: as §1, §2

[6] = test system: Shaker IR; test: Two-electrode voltage clamp, Shaker IR in X. laevis oocytes; assay type: cell-based, Drosophila; details: 10 μM, 18–22 °C, n ≥ 3
Description: as §3, §4

[7] = test system: rKv1.5; test: Two-electrode voltage clamp, rKv1.5 in X. laevis oocytes; assay type: cell-based; details: 10 μM, 18–22 °C, n ≥ 3
Description: as §3, §4

[8] = test system: pancreatic kallikrein; test: SPR interaction with pancreatic kallikrein; assay type: binding; details: for SPR binding to kallikrein (in words): peptide immobilized on CM4 chip
Description: as §1, §2

[9] = test system: hKv1.3; test: Two-electrode voltage clamp, hKv1.3 in X. laevis oocytes; assay type: cell-based; details: 10 μM, 18–22 °C, n ≥ 3
Description: as §3, §4

[10] = test system: murine neuroblastoma Neuro2a cells; test: 6-OHDA-induced cytotoxicity, cell viability (MTT); assay type: cell-based; details: for Increase of cell viability relative to cells treated with 6-OHDA: 10 μM peptide, 30 min before 6-OHDA 25 µM, mean of three independent experiments
Description: Effects of rHCIQ2c1 and rHCIQ4c7 were studied using murine neuroblastoma Neuro2a cells in the presence of 6-OHDA (25 µM). After incubation of Neuro2a cells with recombinant peptides and 6-OHDA for 24 h, the cell viability was evaluated using MTT assay.
The cytoprotective activities of peptides was examined, as described previously. Neuro2a murine neuroblastoma cells (ATCC CCL-131) (American Type Culture Collection, Virginia, USA) were cultivated in DMEM medium (BioloT, Russia) with 10% of fetal bovine serum (FBS, BioloT, Russia) and 80 µg/ml gentamicine (BioloT, Russia). The cells were seeded onto 96-well plate at concentration of 1 × 10^3 cells per well. Substances were added at different concentrations, and then cells were incubated for 30 min at 37 °C and 5% CO2. Cells were treated with 6-OHDA (25 μM) for 24 h at 37 °C with 5% CO2. Thereafter, medium was replaced with clean serum-free medium, and cells were treated with 3-(4,5-dimethylthiazol-2-yl)-2,5-diphenyltetrazolium bromide (MTT) for 4 h[77]. Then the medium was collected and whole cells were lysed in 100% dimethylsulfoxide (DMSO), the absorbance was measured at 570 nm using Multiscan FC (Thermo Fisher Scientific, USA). […] The results were expressed as the mean ± SD of three independent experiments.

[11] = α-chymotrypsin, SPR Biacore 3000, peptide immobilized on CM4 chip, HBS pH 7.4, 25 °C, protease 1 nM to 5 μM
[12] = cathepsin G, SPR Biacore 3000, peptide immobilized on CM4 chip, HBS pH 7.4, 25 °C, protease 1 nM to 5 μM
[13] = kallikrein, SPR Biacore 3000, peptide immobilized on CM4 chip, HBS pH 7.4, 25 °C, protease 1 nM to 5 μM

Substance | SPR binding to α-chymotrypsin (in words) [1] | Activity on Kv1.6 [2] | Activity on hERG [3] | Activity on Kv1.1 [4] | SPR binding to cathepsin G (in words) [5] | Activity on Shaker IR [6] | Activity on Kv1.5 [7] | SPR binding to kallikrein (in words) [8] | Activity on Kv1.3 [9] | Increase of cell viability relative to cells treated with 6-OHDA ([10]; 24 h, MTT) [%] | Toxicity to Neuro2a cells ([10]; 10 μM, MTT) | also measured
rHCIQ2c1: recombinant Kunitz-peptide of Heteractis crispa, most prevalent isoform, mature peptide 58 aa, expressed in E. coli (IQGNICSEPKKVGRCRGSFPRFYFDSETGKCTPFIYGGCGGNGNNFETLHACRAICRA; ends and bridges not checked; cysteine pairing not given here) | specifically binds to all target proteinases | neither 10 μM of rHCIQ2c1 nor rHCIQ4c7 exerted any activity on the Kv channels | neither 10 μM of rHCIQ2c1 nor rHCIQ4c7 exerted any activity on the Kv channels | neither 10 μM of rHCIQ2c1 nor rHCIQ4c7 exerted any activity on the Kv channels | specifically binds to all target proteinases | neither 10 μM of rHCIQ2c1 nor rHCIQ4c7 exerted any activity on the Kv channels | neither 10 μM of rHCIQ2c1 nor rHCIQ4c7 exerted any activity on the Kv channels | specifically binds to all target proteinases | neither 10 μM of rHCIQ2c1 nor rHCIQ4c7 exerted any activity on the Kv channels | 47 | non-toxic | KA, association constant ([1]; α-chymotrypsin, SPR Biacore 3000, peptide immobilized on CM4 chip, HBS pH 7.4, 25 °C): 1.03e+07 M⁻¹; ka, association rate constant [1, 11]: 76900 s/M; kd, dissociation rate constant [1, 11]: 0.00749 s⁻¹; Kd ([1]; α-chymotrypsin, SPR Biacore 3000, peptide immobilized on CM4 chip, HBS pH 7.4, 25 °C, read-out: KD, dissociation constant): 97.4 nM; KA, association constant ([5]; cathepsin G, SPR Biacore 3000, peptide immobilized on CM4 chip, HBS pH 7.4, 25 °C): 3.58e+09 M⁻¹; ka, association rate constant [5, 12]: 1.29e+06 s/M; kd, dissociation rate constant [5, 12]: 0.000359 s⁻¹; Kd ([5]; cathepsin G, SPR Biacore 3000, peptide immobilized on CM4 chip, HBS pH 7.4, 25 °C, read-out: KD, dissociation constant): 0.279 nM; KA, association constant ([8]; kallikrein, SPR Biacore 3000, peptide immobilized on CM4 chip, HBS pH 7.4, 25 °C): 2.04e+06 M⁻¹; ka, association rate constant [8, 13]: 49400 s/M; kd, dissociation rate constant [8, 13]: 0.00379 s⁻¹; Significance of effect on viability of 6-OHDA-treated cells ([10]; 10 μM, 6-OHDA 25 µM, 24 h, * p < 0.05): The reliable effect was revealed; Concentration of maximum cytoprotective activity ([10]; 6-OHDA 25 µM, 24 h, MTT): 10 µM; Dose-response of cytoprotective effect ([10]; 6-OHDA 25 µM, 24 h, MTT): linear dose-dependent character
rHCIQ4c7: recombinant Kunitz-peptide of Heteractis crispa, isoform with the rare substitution Gly17Glu | bounds to trypsin and elastase only | neither 10 μM of rHCIQ2c1 nor rHCIQ4c7 exerted any activity on the Kv channels | neither 10 μM of rHCIQ2c1 nor rHCIQ4c7 exerted any activity on the Kv channels | neither 10 μM of rHCIQ2c1 nor rHCIQ4c7 exerted any activity on the Kv channels | bounds to trypsin and elastase only | neither 10 μM of rHCIQ2c1 nor rHCIQ4c7 exerted any activity on the Kv channels | neither 10 μM of rHCIQ2c1 nor rHCIQ4c7 exerted any activity on the Kv channels | bounds to trypsin and elastase only | neither 10 μM of rHCIQ2c1 nor rHCIQ4c7 exerted any activity on the Kv channels | 14 | non-toxic | –

Source: PMC7060258 (Scientific Reports, 2020)
